Assay results from a melting point compilation (Tetko et al.; mined from patent text by program, amines drawn as free bases though some values may be those of a salt).

melting point | Structure (SMILES)
300 °C | CCOC(=O)c1c[nH]c2cc(Cl)ncc2c1=O
179 to 181 °C | O=C(NO)c1ccc(C(=O)NOCCCc2ccccc2)cc1
49 to 53 °C | CCC1(CC)C(=O)N(C(C)(C)CC(C)(C)C)CC(C)(C)N1OC(C)(C)C#N
270 to 273 °C | COc1ccc(CN2Cc3cncn3C(c3ccc(-c4ccc(Cl)cc4)cc3)C2=O)cc1 (centres undefined)
258 to 260 °C | CCCCN(CCCC)c1ccc(C=Cc2ccc(C=CC3=C(C#N)C(=C(C#N)C#N)OC3(C)C)cc2)c(OC)c1
140 to 142 °C | CCCCNC(=O)NS(=O)(=O)c1ccccc1S(=O)(=O)OCC(F)(F)F
73 to 74 °C | COc1ccc2c(c1)N(CC#N)CCO2
126 °C | Cc1oc(-c2cccs2)nc1CCOc1ccc([N+](=O)[O-])cn1
84 to 86 °C | CCCC(C(=O)N(C)C)n1cc(C)c(-c2ccccc2)n1 (centres undefined)
127 to 128 °C | Cc1cccc(C)c1NCCNCC(O)COc1cccc2[nH]ncc12 (centres undefined)
240 °C | Cc1nc(NC(=O)c2ccccc2)n(C)c(=O)c1CCN1CCC(=C(c2ccc(F)cc2)c2ccc(F)cc2)CC1
163 to 166 °C | CCC(O)(CC(=O)OC)c1cc2n(c(=O)c1COC)Cc1cc3ccccc3nc1-2 (centres undefined)
79 °C | CN1CCC(NC(c2cccc(C#CCCCCN)c2)c2nc3ccccc3[nH]2)CC1 (centres undefined)
95 to 97 °C | CN(C)CCCOc1cnc(-c2cccc(CO)c2)nc1
236 to 238 °C | O=C(O)c1sc2cc(OCc3cccnc3)ccc2c1Sc1ccccc1
76 to 78 °C | FC(F)(F)Sc1ccc(C=Cc2nc(CNc3ccc(CCCCn4ccnn4)cc3)co2)cc1
70 °C | ClCOc1ccc2ccccc2c1
61 °C | CCCCCC(CCC(=O)c1ccc(OCC)cc1)C(=O)O (centres undefined)
222 to 223 °C | CCCNc1nnc(Cc2c(Cl)cncc2Cl)c2ccc(OC)cc12
174 to 175 °C | CCOC(=O)c1cnc2c(NC(=O)c3c(Cl)cccc3Cl)cccc2c1SCC(=O)O
197 to 198 °C | O=C(O)c1ccc2oc(Cc3cccnc3)cc2c1
265 to 266 °C | COc1ccc(/C=C/c2nc3c([nH]2)c(=O)n(C)c(=O)n3C)c(OC)c1OC
238 to 240 °C | O=C(O)c1ccc(-n2sc(-c3ccccc3)cc2=O)cc1
180 to 182 °C | CCC(CC)COc1ccc(-n2cc(C(=O)O)cn2)cc1C#N
211 to 212 °C | CN(C(=O)c1cc2ccccc2s1)c1ccc(N2CCC(O)CC2)c(C#N)c1
78 to 79 °C | CCCCCCCCCCCCCCCCCC(=O)Nc1cccc(N(CC(=O)OC)CC(=O)OC)c1
212 to 218 °C | CC(C)([C@H](NC(=O)c1ccccc1)C(=O)N[C@@H](Cc1ccccc1)[C@H](O)CN1C[C@H]2CCCC[C@H]2C[C@H]1C(=O)NCc1ccccc1)S(C)(=O)=O
260 °C | CCn1c(N)c(C(=O)NC)c(=O)c2ccc(-c3ccc(CC(=O)O)cc3)nc21
285 to 288 °C | CCOC(=O)c1c[nH]c2c(cc(Cl)c3c(=O)c(C(=O)OCC)c[nH]c32)c1=O

More lines, now with the values behind:

Structure (SMILES) | melting point
CN1C(=O)CC[C@]2(C)c3ccc(NC(=O)c4cccc([N+](=O)[O-])c4)cc3CC[C@@H]12 | 240 to 242 °C
CC1CC(O)=CC2=CCC3C4CCC(O)C4(C)CCC3C21C (centres undefined) | 111 to 112 °C
CCCc1c(OCCCCCc2c(Cl)c(Cl)c(Cl)c(OC)c2OC)ccc(C(=O)OC)c1O | 84 to 87 °C
CC(C)[C@H](N)C(=O)OCc1nc2c(N)nc3ccccc3c2n1CC(C)(C)O | 190 to 192 °C
CC(C)(C)c1cc(C(=O)Oc2ccc(C(=O)O)cc2)cc(C(C)(C)C)c1O | 223 to 224 °C
C=CCON=C(C(=O)O)C1=CSCCO1 | 119 to 121 °C
CCCCC(Cc1ccc(OCc2ccccc2)cc1)(C(=O)OCC)C(=O)OCC | 73 °C
O=C(Nc1cc(Cl)c([N+](=O)[O-])cc1O)C(=O)Nc1cc(Cl)c([N+](=O)[O-])cc1O | 302 °C
Fc1cc(F)c(COc2cccnc2NC(=S)Nc2ccc(Cl)cc2)c(F)c1 | 181 to 183 °C
CC(CNc1nc2ccccc2o1)C(=O)NCCCN(C)Cc1ccc(Cl)c(Cl)c1 (centres undefined) | 134 to 135 °C
CCCn1cc2c(C3C(=O)Nc4ccc(Br)cc43)nc(NCC(C)N)nc2n1 (centres undefined) | 247 to 250 °C
CN(CSC(C)(C)CC(C)(C)C)C(=O)Nc1cccc(C(F)(F)F)c1 | 52 to 54 °C
CCCCCCCCCCCCCCOc1ccc(CO)cc1 | 72 to 74 °C
O=C(Cl)c1cccnc1Nc1cccc(Cl)c1 | 112 to 115 °C
O=C(O)CCCCCCCSc1nc(-c2ccccc2)c(-c2ccccc2)[nH]1 | 160 to 162 °C
O=C1CCC(c2cc(F)c(OC3CCN(C4CCC4)CC3)c(F)c2)=NN1 | 162 to 164 °C
CC(C)(C)Nc1c(Nc2cnc3ccccc3c2)c(=O)c1=O | 257 to 260 °C
COc1ccc(-c2cc(C)sc2-c2ccc(OC)cc2)cc1 | 93 to 97 °C
COC(=O)C1Oc2ccc(Cl)cc2C(c2ccccc2)(c2ccccc2)O1 (centres undefined) | 172 °C
CNS(=O)(=O)Cc1ccc2[nH]cc(CCN=CNc3ccccc3)c2c1 | 72 to 73 °C

Structure (SMILES) | melting point
O=C1c2ccccc2C(=O)N1CC(=C(F)F)c1ccccc1 | 102 to 103 °C
C#CCN(C(CCn1c(=O)[nH]cc(C(F)(F)F)c1=O)C(=O)NO)S(=O)(=O)c1ccc(Oc2ccccc2)cc1 (centres undefined) | 170 to 171 °C
O=[N+]([O-])c1ccc(Oc2cc(Cl)c(Cl)cc2Cl)c(Cl)c1Oc1ccccc1 | 112 °C
CCON=C(C(=O)OCC)C1=CSc2ccccc2S1 | 78 to 81 °C
CCCc1nn(-c2ccc(C(F)(F)F)cn2)cc1CCCOc1c(C)cccc1CC(=O)O | 134 to 135 °C
O[C@H](COc1cccc2cc(-c3nnc(-c4ccccc4)o3)oc12)CN1CCC(c2ccc3ccccc3c2)CC1 | 78 to 80 °C
O=C(O)c1ccc(-c2ccc3cc(OCc4ccc(F)cc4)c(C45CC6CC(CC(C6)C4)C5)cc3c2)cc1O | 240 to 241 °C
Cc1nc(CO)ccc1CO | 94 to 96 °C
Cn1c(-c2cccc(Cl)c2)cc(-c2cccc(Cl)c2)nc1=O | 178 to 181 °C
Cc1ccc2sc3cc(C(=O)O)ccc3c2c1 | 290 to 291 °C
N#CCc1ccc(-c2nc3ccccc3o2)cc1N | 198 to 199 °C
Cc1ccc(NC(=O)c2ccc3oc(-c4c(C)cc(OCC(=O)N(C)C)cc4C)nc3c2)cc1C | 207 to 209 °C
CNC(=O)N(O)C(C)C#Cc1ccc(C(C)C)cc1 (centres undefined) | 146 to 147 °C
O=[N+]([O-])c1c(-c2cc(Cl)cc(Cl)c2)[nH]c2c(Cl)cc(Cl)cc12 | 272 to 273 °C
CN1C(=O)CC[C@]2(C)c3ccc(-c4ccccc4F)cc3CC[C@@H]12 | 142 to 150 °C
COc1ccc(-c2cc(=O)n(CC(C)C)nc2-c2ccc(OC)c(F)c2)cc1F | 154 °C
CC(C)CC(NC(=O)Cc1ccc(NC(=O)Nc2ccccc2Cl)cc1)c1cc(CCC(=O)O)on1 (centres undefined) | 143 to 145 °C
O=C(c1cc2c3ccccc3n(Cc3ccccc3)c2s1)N1CCOCC1 | 199 to 201 °C
CCCC#Cc1ccnc2c1c(C(C)=O)cn2S(=O)(=O)c1ccccc1 | 134 to 136 °C
C=CCNC1=NS(=O)(=O)c2cnccc2N1 | 206 to 208 °C
